The record followed here is US11319315B2, “Cyclohexyl acid triazole azoles as LPA antagonists” (BRISTOL-MYERS SQUIBB COMPANY, priority 2017, dated 2022).

pIC50: −log10 of the molar value.

T1 sequence (Q92633 whole entry): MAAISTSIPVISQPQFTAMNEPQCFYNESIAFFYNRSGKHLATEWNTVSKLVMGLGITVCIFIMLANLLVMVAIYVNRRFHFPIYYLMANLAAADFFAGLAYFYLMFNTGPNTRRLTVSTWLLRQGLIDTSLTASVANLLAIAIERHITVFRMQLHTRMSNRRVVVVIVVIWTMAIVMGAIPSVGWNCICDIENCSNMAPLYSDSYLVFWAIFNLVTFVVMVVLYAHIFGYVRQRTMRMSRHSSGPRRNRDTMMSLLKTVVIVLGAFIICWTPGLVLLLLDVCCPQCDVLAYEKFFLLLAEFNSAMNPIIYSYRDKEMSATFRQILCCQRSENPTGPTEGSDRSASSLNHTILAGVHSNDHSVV

This assay addresses T1, human LPA1 (Homo sapiens, UniProt Q92633).
T1 construct: expressed in transfected cells; host or cells: Chinese hamster ovary (CHO) cells
The assay can be described thus: LPA1 functional antagonist assay (LPA-induced calcium flux in CHO cells overexpressing human LPA1). The conditions noted are these: inhibition of calcium flux induced by 10 nM LPA, CHO cells overexpressing human LPA1; read-out: hLPA1 IC50. The class given is cell-based. Summed up: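 CHO cells overexpressing human LPA1, dye-loaded 30 min at 37 °C, then given compound (0.08 nM–5 μM final, 0.5% DMSO) in HBSS/20 mM HEPES/0.1% fatty-acid-free BSA for 20 min at room temperature before 10 nM LPA. IC50 as 50% inhibition of LPA-evoked calcium flux, 4-parameter logistic fit.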
(In general: Calcium flux is commonly read through the fluorescence of an indicator in the cells.)
The term pIC50 denotes the IC50 on a negative log10 scale, so that one unit is a factor of ten. For `Cn1nnc(-c2ccc(O[C@H]3CCC[C@H](C(=O)O)C3)c(C#N)n2)c1Cn1cc(Cc2ccccc2)nn1` [Example 91], the pIC50 was 6.96. The same measure for `Cn1nnc(-c2ccc(O[C@H]3CCC[C@H](C(=O)O)C3)c(C#N)n2)c1Cn1cc(CC2CC2)nn1` [Example 92]: 6.96. For `Cn1nnc(-c2ccc(O[C@H]3CCC[C@H](C(=O)O)C3)c(C#N)n2)c1Cn1cc(CC2CCCC2)nn1` [Example 93], the pIC50 is 7.22. The same measure for `Cn1nnc(-c2ccc(O[C@H]3CCC[C@H](C(=O)O)C3)c(C#N)n2)c1Cn1cc(CC2CCCCC2)nn1` [Example 94]: 7.27. With `CCc1nc(-c2nnn(C)c2Cn2cc(Cc3ccccc3)nn2)ccc1O[C@H]1CCC[C@H](C(=O)O)C1` [Example 95] the figure was 8.15. With `CCCCc1cn(Cc2c(-c3ccc(O[C@H]4CCC[C@H](C(=O)O)C4)c(CC)n3)nnn2C)nn1` [Example 96] the figure was 8.05; with `CCc1nc(-c2nnn(C)c2Cn2cc(CC3CC3)nn2)ccc1O[C@H]1CCC[C@H](C(=O)O)C1` [Example 97], 8.10; with `Cc1sc(NCc2c(-c3ccc(O[C@H]4CCC[C@H](C(=O)O)C4)cn3)nnn2C)nc1-c1ccccn1` [Example 98], 5.98. As for `Cc1nc(-c2nnn(C)c2CNc2nc(C3CCC3)ns2)ccc1O[C@H]1CCC[C@H](C(=O)O)C1` [Example 99], the pIC50 is 7.14.

With `Cc1nc(-c2nnn(C)c2CNc2nc(C3CCCC3)ns2)ccc1O[C@H]1CCC[C@H](C(=O)O)C1` [Example 100], the pIC50 was 7.11. On to `Cc1nc(-c2nnn(C)c2CNc2nc(-c3ccccn3)ns2)ccc1O[C@H]1CCC[C@H](C(=O)O)C1` [Example 101], for which the pIC50 was 6.32. The same measure for `Cc1nc(-c2nnn(C)c2CNc2nc(CC(C)C)ns2)ccc1O[C@H]1CCC[C@H](C(=O)O)C1` [Example 102]: 7.01.

As to `Cc1nc(-c2nnn(C)c2CNc2nc(C3CC3)ns2)ccc1O[C@H]1CCC[C@H](C(=O)O)C1` [Example 103], the pIC50 was 6.29.

Turning to `CCCc1nsc(NCc2c(-c3ccc(O[C@H]4CCC[C@H](C(=O)O)C4)c(C)n3)nnn2C)n1` [Example 104], the pIC50 was 6.96. On to `Cc1nc(-c2nnn(C)c2Cn2nnc(CC3CC3)n2)ccc1O[C@H]1CCC[C@H](C(=O)O)C1` [Example 105, (1 S,3 S)-3-((6-(5-((5-(cyclopropylmethyl)-2H-tetrazol-2-yl)methyl)-1-methyl-1H-1,2,3-triazol-4-yl)-2-methylpyridin-3-yl)oxy)cyclohexane-1-carboxylic acid], for which the pIC50 is 7.54. With `Cc1nc(-c2nnn(C)c2Cn2nnnc2CC2CC2)ccc1O[C@H]1CCC[C@H](C(=O)O)C1` [Example 106, (1S,3S)-3-((6-(5-((5-(cyclopropylmethyl)-1H-tetrazol-1-yl)methyl)-1-methyl-1H-1,2,3-triazol-4-yl)-2-methylpyridin-3-yl)oxy)cyclohexane-1-carboxylic acid] the figure was 6.83; with `Cc1nc(-c2nnn(C)c2Cn2nnc(-c3ccccc3)n2)ccc1O[C@H]1CCC[C@H](C(=O)O)C1` [Example 107], 7.38. The same measure for `Cc1nc(-c2nnn(C)c2Cn2nnnc2-c2ccccc2)ccc1O[C@H]1CCC[C@H](C(=O)O)C1` [Example 108]: 6.62; for `Cc1nc(-c2nnn(C)c2Cn2nnc(Cc3ccccc3)n2)ccc1O[C@H]1CCC[C@H](C(=O)O)C1` [Example 109]: 7.85; for `Cc1nc(-c2nnn(C)c2Cn2nnnc2Cc2ccccc2)ccc1O[C@H]1CCC[C@H](C(=O)O)C1` [Example 110]: 6.68. The same measure for `CCCCc1nnn(Cc2c(-c3ccc(O[C@H]4CCC[C@H](C(=O)O)C4)c(C)n3)nnn2C)n1` [Example 111]: 7.47; for `CCCCc1nnnn1Cc1c(-c2ccc(O[C@H]3CCC[C@H](C(=O)O)C3)c(C)n2)nnn1C` [Example 112]: 6.75; for `CCCc1nnn(Cc2c(-c3ccc(O[C@H]4CCC[C@H](C(=O)O)C4)c(C)n3)nnn2C)n1` [Example 113]: 7.52.
